Key:
[1] = target: T1, human recombinant TC-PTP protein (Homo sapiens, UniProt P17706); assay: Phosphatase activity assay with DiFMUP, TC-PTP inhibition; format: biochemical; details: DiFMUP 35 µM, 80 ng/mL TC-PTP, compounds 0.1–80 μM; M ± SEM (n = 24); read-out: IC50 for the inhibitory effect on TC-PTP activity
T1 construct: purchased Sigma-Aldrich SRP0218
T1 sequence (P17706 1-415): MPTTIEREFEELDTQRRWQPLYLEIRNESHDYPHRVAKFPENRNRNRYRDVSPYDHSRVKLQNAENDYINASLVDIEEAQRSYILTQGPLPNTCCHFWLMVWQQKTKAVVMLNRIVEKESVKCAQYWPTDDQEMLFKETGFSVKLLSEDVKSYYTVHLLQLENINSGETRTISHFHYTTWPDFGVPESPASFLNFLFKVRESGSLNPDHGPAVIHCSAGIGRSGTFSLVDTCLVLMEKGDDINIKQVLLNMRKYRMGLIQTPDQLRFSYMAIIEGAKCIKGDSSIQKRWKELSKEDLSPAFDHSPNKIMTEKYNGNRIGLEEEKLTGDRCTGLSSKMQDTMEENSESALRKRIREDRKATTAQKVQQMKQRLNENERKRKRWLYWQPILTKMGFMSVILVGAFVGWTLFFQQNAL
Method: (§1) The measurement of the activity of the phosphatases PTP1B and TC-PTP and their inhibition was carried out using 6,8-difluoro-4methylumbelliferyl phosphate (DiFMUP), as previously described. The stock solution of recombinant human PTP1B protein (#ab51277, Abcam, Cambridge, UK), at a concentration of 1 µg/µL, was prepared in 25 mM Tris–HCl (pH 7.5), 20% glycerol, 2 mM β-mercaptoethanol, 1 mm EDTA, and 1 mM DTT, and stored at −20 °C. Active human recombinant TC-PTP protein was purchased from Sigma-Aldrich (#SRP0218, Saint Louis, MO, USA) as the aqueous buffer solution at a concentration of 2.9 mg/mL, and aliquots were stored at −80 °C. The fluorogenic substrate DiFMUP (#D6567, Molecular Probes, Thermo Fisher Scientific, Waltham, MA, USA) was dissolved at a concentration of 10 mM in N,N-dimethylformamide and stored in aliquots at −20 °C. The 6,8-difluoro-7-hydroxy-4-methylcoumarin (DiFMU, #D6566, Molecular Probes, Thermo Fisher Scientific, Waltham, MA, USA) was used as a reference fluorescent standard. For the IC50 determination, the assay was carried out in black flat bottom 96-well plates using a reaction volume of 100 µL. The phosphatases (PTP1B or TC-PTP) were preincubated with the tested compounds (0.1–80 µM) in 50 mM HEPES (pH 6.9), 100 mM NaCl, 1 mM EDTA, 2 mM DTT, 0.1 mg/mL BSA for 5 min at 37 °C. The following concentrations of the compounds were studied: 0.1, 0.2, 0.5, 1, 2, 5, 10, 20, 40, and 80 μM. The reactions were initiated by the addition of the fluorogenic substrate DiFMUP and diluted in the assay buffer. Progress curves for hydrolysis reaction were obtained with 25 µM of DiFMUP for 80 ng/mL PTP1B, and 35 µM of DiFMUP for 80 ng/mL TC-PTP. Fluorescence excitation of hydrolyzed DiFMUP and the fluorescent standard DiFMU was monitored at 355 nm and emission was detected at 460 nm for 6–10 min at 30 s intervals in a Fluoroskan Ascent FL microplate reader (Thermo Electron Corporation, Vantaa, Finland). Initial velocities of the reactions were used to calculate the IC50 values using GraphPad Prism.
(§2) The data on food intake, body weight, and biochemical parameters in rats, as well as the PCR data, were analyzed using the IBM SPSS Statistics 22 software (“IBM”, Armonk, NY, USA), and the results are presented as mean ± standard error of the mean (M ± SEM). All differences are considered significant at p < 0.05. The calculation of the IC50 values of the studied inhibitors for the initial velocities of enzymatic reactions (PTP1B, TC-PTP) was carried out using the nonlinear regression analysis with GraphPad Prism 8 (“GraphPad Software, Inc.”, Boston, MA, USA). The statistical analysis was carried out using the Wilcoxon test for pairwise comparison and Dunn’s test for multiple comparisons.

[2] = target: T2, recombinant human PTP1B protein (Homo sapiens, UniProt P18031); assay: Phosphatase activity assay with DiFMUP, PTP1B inhibition; format: biochemical; details: for IC50: DiFMUP 25 µM, 80 ng/mL PTP1B, compounds 0.1–80 μM, M ± SEM (n = 24), read-out: IC50 for the inhibitory effect on PTP1B activity
T2 construct: purchased Abcam ab51277
T2 sequence (P18031 1-321 limits assumed): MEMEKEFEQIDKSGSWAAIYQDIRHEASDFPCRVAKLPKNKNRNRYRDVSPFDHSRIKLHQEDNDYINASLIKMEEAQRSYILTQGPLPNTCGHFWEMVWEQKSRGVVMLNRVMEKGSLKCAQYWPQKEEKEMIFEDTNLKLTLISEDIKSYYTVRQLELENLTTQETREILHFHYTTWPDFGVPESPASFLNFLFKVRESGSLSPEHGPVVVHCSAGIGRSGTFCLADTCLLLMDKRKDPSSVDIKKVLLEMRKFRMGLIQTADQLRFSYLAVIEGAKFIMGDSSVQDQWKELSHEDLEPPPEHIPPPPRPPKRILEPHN
Method: as §1, §2

IC50 [1] [µM] | IC50 [2] [µM] | selectivity for PTP1B compared to that for TC-PTP ([2]; from IC50 values of Table 1) | SMILES
18.9 ± 2.06 | 3.78 ± 0.34 | 5–7 fold | O=c1c(CO)n[nH]c2ccccc12 [Compound 1]
2.98 ± 0.76 | 5.11 ± 0.57 | – | O=c1c(CO)n[nH]c2ccc(Cl)cc12 [Compound 3, 6-Chloro-3-(hydroxymethyl)cinnolin-4(1H)-one]
26.5 ± 4.66 | 11 ± 1.34 | – | O=c1c(CO)n[nH]c2ccc(Br)cc12 [Compound 4, 6-Bromo-3-(hydroxymethyl)cinnolin-4(1H)-one]

Source: PMC10002984, “Dual PTP1B/TC-PTP Inhibitors: Biological Evaluation of 3-(Hydroxymethyl)cinnoline-4(1H)-Ones” (International Journal of Molecular Sciences, 2023)
